Results from patent US12643871B2, “Aryl formamide compound containing chiral sulfur oxide or salt thereof, preparation method, herbicidal composition and use thereof” (Qingdao Kingagroot Chemical Compound Co., Ltd., priority 2019, dated 2026).

How the values were obtained:
Experiment in all cases: Weeding effect in post-emergence stage
Assay type in all cases: in vivo
Settings in all cases: 250 g/ha; 2 leaf stage; 15 days after application; fresh weight control rate
Echinochloa crusgali = system: Echinochloa crusgali
Text: (§1) The activity level criteria for harmful plant damage (i.e., growth control rate) are as follows: • Level 5: growth control rate is above 85%; • Level 4: growth control rate is greater than or equal to 60% and less than 85%; • Level 3: growth control rate is greater than or equal to 40% and less than 60%; • Level 2: growth control rate is greater than or equal to 20% and less than 40%; • Level 1: growth control rate is greater than or equal to 5% and less than 20%; • Level 0: growth control rate is less than 5%.
(§2) The above growth control rates are fresh weight control rates.
(§3) Experiment on weeding effect in post-emergence stage: monocotyledonous and dicotyledonous weed seeds (Descurainia sophia, Capsella bursa-pastoris, Galium aparine, Stellaria media, Lithospermum arvense, Rorippa indica, Alopecurus aequalis, Beckmannia syzigachne, Sclerochloa dura, Phleum paniculatum, Bromus japonicus, Aegilops tauschii, Phalaris arundinacea, Amaranthus retroflexus, Chenopodiaceae, Commelina communis, Sonchus arvensis, convolvulus arvensis, Cirsium setosum, Solanum nigrum, Acalypha australis, Digitaria sanguinalis, Echinochloa crusgalli, Setaria viridis, Setaria glauca, Leptochloa chinensis, Monochoria vaginalis, Sagittaria trifolia, Scirpus juncoides, Cyperus rotundus, Cyperus iria, Cyperus difformis, Fimbristylis, Portulaca oleracea, Xanthium sibiricum, Pharbitis nil) and major crop seeds (wheat, corn, rice, soybean, cotton, oilseed rape, millet, sorghum, potato, sesame, ricinus) were placed in plastic pots filled with soil, then covered with 0.5-2 cm of soil, allowed to grow in a good greenhouse environment. After 2 weeks of sowing, the test plants were treated in the 2 leaf stage. The tested compounds of the present invention were respectively dissolved in acetone, then added with Tween 80 and 1.5 liter/ha of emulsifiable concentrate of methyl oleate as synergist, diluted with a certain amount of water to obtain a solution with a certain concentration, and sprayed with a spray tower onto the plants. After the application, the plants were cultured for 15 days in the greenhouse, and then the experimental results of the weeding were counted. The doses of the used compounds were 500, 250, 125, 60, 30, 15 g/ha, and the averages were obtained by repeating for three times.

Amaranthus retroflexus = system: Amaranthus retroflexus
Text: as §1, §2, §3

Digitaria sanguinalis = system: Digitaria sanguinalis
Text: as §1, §2, §3

Structure (SMILES) | weeding effect in post-emergence stage, activity level (growth control rate), Echinochloa crusgali (Echinochloa crusgali) | weeding effect in post-emergence stage, activity level (growth control rate), Amaranthus retroflexus (Amaranthus retroflexus) | weeding effect in post-emergence stage, activity level (growth control rate), Digitaria sanguinalis (Digitaria sanguinalis)
CC[S@@+]([O-])c1c(C(F)(F)F)ccc(C(=O)Nc2ccon2)c1OC [Compound 457] | 5 (Level 5: growth control rate is above 85%) | 5 (Level 5: growth control rate is above 85%) | 
CC[S@@+]([O-])c1c(C(F)(F)F)ccc(C(=O)Nc2nocc2C)c1OC [Compound 458] | 5 (Level 5: growth control rate is above 85%) | 5 (Level 5: growth control rate is above 85%) | 
CC[S@@+]([O-])c1c(C(F)(F)F)ccc(C(=O)Nc2ncnn2C)c1OC [Compound 471] | 5 (Level 5: growth control rate is above 85%) | 5 (Level 5: growth control rate is above 85%) | 
Cc1ccc(C(=O)Nc2nnnn2C)c(C)c1[S@+]([O-])C(C)C [Compound 476] | 5 (Level 5: growth control rate is above 85%) | 5 (Level 5: growth control rate is above 85%) | 
Cc1ccc(C(=O)Nc2nnnn2C)c(C)c1[S@+]([O-])CC(C)C [Compound 477] | 5 (Level 5: growth control rate is above 85%) | 5 (Level 5: growth control rate is above 85%) | 
Cc1ccc(C(=O)Nc2nnnn2C)c(C)c1[S@+]([O-])CC(F)(F)F [Compound 478] | 5 (Level 5: growth control rate is above 85%) | 5 (Level 5: growth control rate is above 85%) | 
CC[S@@+]([O-])c1c(C)ccc(C(=O)Nc2nnc(C)o2)c1C [Compound 481] | 5 (Level 5: growth control rate is above 85%) | 5 (Level 5: growth control rate is above 85%) | 
CCC[S@@+]([O-])c1c(C)ccc(C(=O)Nc2nnc(C)o2)c1C [Compound 482] | 5 (Level 5: growth control rate is above 85%) | 5 (Level 5: growth control rate is above 85%) | 
Cc1nnc(NC(=O)c2ccc(C)c([S@+]([O-])C(C)C)c2C)o1 [Compound 483] | 5 (Level 5: growth control rate is above 85%) | 5 (Level 5: growth control rate is above 85%) | 
Cc1nnc(NC(=O)c2ccc(C)c([S@+]([O-])CC(C)C)c2C)o1 [Compound 484] | 5 (Level 5: growth control rate is above 85%) | 5 (Level 5: growth control rate is above 85%) | 
Cc1nnc(NC(=O)c2ccc(C)c([S@+]([O-])CC(F)(F)F)c2C)o1 [Compound 485] | 5 (Level 5: growth control rate is above 85%) | 5 (Level 5: growth control rate is above 85%) | 
Cc1nnc(NC(=O)c2ccc(C(C)C)c([S@@+](C)[O-])c2C)o1 [Compound 486] | 5 (Level 5: growth control rate is above 85%) | 5 (Level 5: growth control rate is above 85%) | 
Cc1nnc(NC(=O)c2ccc(S(C)(=O)=O)c([S@@+](C)[O-])c2C)o1 [Compound 491] | 5 (Level 5: growth control rate is above 85%) | 5 (Level 5: growth control rate is above 85%) | 
CCC[S@@+]([O-])c1c(S(C)(=O)=O)ccc(C(=O)Nc2nnc(C)o2)c1C [Compound 492] | 5 (Level 5: growth control rate is above 85%) | 5 (Level 5: growth control rate is above 85%) | 
Cc1nnc(NC(=O)c2ccc(S(C)(=O)=O)c([S@+]([O-])C(C)C)c2C)o1 [Compound 493] | 5 (Level 5: growth control rate is above 85%) | 5 (Level 5: growth control rate is above 85%) | 
C=CC[S@@+]([O-])c1c(S(C)(=O)=O)ccc(C(=O)Nc2nnc(C)o2)c1C [Compound 496] | 5 (Level 5: growth control rate is above 85%) | 5 (Level 5: growth control rate is above 85%) | 
C#CC[S@@+]([O-])c1c(S(C)(=O)=O)ccc(C(=O)Nc2nnc(C)o2)c1C [Compound 497] | 5 (Level 5: growth control rate is above 85%) | 5 (Level 5: growth control rate is above 85%) | 
Cc1nnc(NC(=O)c2ccc(S(C)(=O)=O)c([S@+]([O-])CC3CC3)c2C)o1 [Compound 498] | 5 (Level 5: growth control rate is above 85%) | 5 (Level 5: growth control rate is above 85%) | 
Cc1nnc(NC(=O)c2ccc(S(C)(=O)=O)c([S@+]([O-])CCF)c2C)o1 [Compound 499] | 5 (Level 5: growth control rate is above 85%) | 5 (Level 5: growth control rate is above 85%) | 
Cc1nnc(NC(=O)c2ccc(S(C)(=O)=O)c([S@+]([O-])CC(F)(F)F)c2C)o1 [Compound 500] | 5 (Level 5: growth control rate is above 85%) | 5 (Level 5: growth control rate is above 85%) | 
Cc1nnc(NC(=O)c2ccc(S(C)(=O)=O)c([S@+]([O-])CC(C)F)c2C)o1 (stereo partly drawn) [Compound 501] | 5 (Level 5: growth control rate is above 85%) | 5 (Level 5: growth control rate is above 85%) | 
Cc1c(C(=O)Nc2nnnn2C)ccc(S(C)(=O)=O)c1[S@@+](C)[O-] [Compound 511] | 5 (Level 5: growth control rate is above 85%) | 5 (Level 5: growth control rate is above 85%) | 
CCC[S@@+]([O-])c1c(S(C)(=O)=O)ccc(C(=O)Nc2nnnn2C)c1C [Compound 512] | 5 (Level 5: growth control rate is above 85%) | 5 (Level 5: growth control rate is above 85%) | 
Cc1c(C(=O)Nc2nnnn2C)ccc(S(C)(=O)=O)c1[S@+]([O-])C(C)C [Compound 513] | 5 (Level 5: growth control rate is above 85%) | 5 (Level 5: growth control rate is above 85%) | 
Cc1c(C(=O)Nc2nnnn2C)ccc(S(C)(=O)=O)c1[S@+]([O-])CC(C)C [Compound 515] | 5 (Level 5: growth control rate is above 85%) | 5 (Level 5: growth control rate is above 85%) | 
C=CC[S@@+]([O-])c1c(S(C)(=O)=O)ccc(C(=O)Nc2nnnn2C)c1C [Compound 516] | 5 (Level 5: growth control rate is above 85%) | 5 (Level 5: growth control rate is above 85%) | 
C#CC[S@@+]([O-])c1c(S(C)(=O)=O)ccc(C(=O)Nc2nnnn2C)c1C [Compound 517] | 5 (Level 5: growth control rate is above 85%) | 5 (Level 5: growth control rate is above 85%) | 
CSCC[S@@+]([O-])c1c(C(F)(F)F)ccc(C(=O)Nc2nnnn2C)c1SC [Compound 595] | 5 (Level 5: growth control rate is above 85%) | 5 (Level 5: growth control rate is above 85%) | 5 (Level 5: growth control rate is above 85%)
